Laboratory results: US7754864B2, “Tyrosinase activity controlling agent, process for producing the same and external preparation containing the same” (National Institute of Advanced Industrial Science and …, priority 2002, dated 2010)

What was measured:
[1] = system: tyrosinase (derived from mushroom, SIGMA); test: Tyrosinase inhibitory activity using proline, phenol as substrate; type: biochemical; conditions: for tyrosinase inhibitory activity: phenol as substrate, absorbance 525 nm
Description: The tyrosinase inhibitory activity of an undecylenic acid sugar ester was determined using phenol as a substrate, by a modification of the method using pyrocatechol.

Mouse melanoma B16 cells = test: Evaluation of melanogenesis inhibitory effect using mouse melanoma cells; type: cell-based; conditions: melanin production per cell, FIG. 4
Description: Mouse melanoma B16 cells (3.6×10^5) were added to a 75 cm^2 culture flask containing 15 ml of D-MEM culture medium supplemented with 10% FCS, and incubated overnight at 37° C. under 5% carbon dioxide gas to adhere the cells. The culture medium was changed to 15 ml of 10% FCS-supplemented D-MEM culture medium containing one of 0.1% DMSO solutions of arbutin or 6-O-(10-undecylenoyl) arbutin obtained in Example 1-1 at various concentrations. The incubation was continued for two more days under the same conditions. The culture medium was again changed to 15 ml of the 0.1% DMSO solution-containing culture medium, and incubation was continued for two more days under the same conditions. After incubation, the cells were recovered, and the wet weight of the cells was measured. After the wet weight measurement, pellets of the cells were suspended in MilliQ water to a total volume of 700 μl. […] The absorbance (405 nm) was then measured. […] The melanin production per cell was indicated as absorbance at 405 nm/cell wet weight (μg). The melanogenesis inhibitory effects of arbutin undecylenate or arbutin at each concentration was determined, with the melanin production per cell without addition of arbutin or arbutin undecylenate being taken as 100%.

[2] = system: tyrosinase (derived from mushroom, SIGMA); test: Tyrosinase activation promoting effect, phenol as substrate in the presence of proline; type: biochemical; conditions: FIG. 10
Description: Ascorbic acid and ascorbic acid derivatives were used as test substances for measuring tyrosinase activation promoting effects, using phenol as a substrate in the presence of proline.
Phenol is hydroxylated by tyrosinase, and at that time requires a hydrogen donor. The produced pyrocatechol is oxidized by tyrosinase to form an orthoquinone. The orthoquinone formed is quantitated in the presence of proline, to determine the tyrosinase activity.
Specifically, the measurement was carried out as follows. Forty microliters of 0.749 M L-proline dissolved in 0.1 M phosphate buffer at pH 7.5, 40 μl of 0.037 M phenol, and 1.41 ml of one of test substance solutions at various concentrations were stirred in a cuvette for absorbance measurement. A solution (10 μl) of 350 μg/ml of tyrosinase (derived from mushroom, SIGMA) was added, and the absorbance change was measured with stirring for 15 minutes at 525 nm, to determine the tyrosinase activity. […]

[3] = system: tyrosinase (derived from mushroom, SIGMA); test: Tyrosinase inhibitory activity using proline, pyrocatechol as substrate; type: biochemical; conditions: pyrocatechol (catechol) as substrate, absorbance 525 nm

| Compound | tyrosinase inhibitory activity [3] | tyrosinase inhibitory activity [1] | also measured |
| --- | --- | --- | --- |
| Trehalose oleate |  | not inhibit tyrosinase activity |  |
| C=CCCCCCCCCC(=O)OC[C@H]1O[C@@H](Oc2ccc(O)cc2)[C@H](O)[C@@H](O)[C@@H]1O [arbutin undecylenate, 6-O-(10-undecylenoyl)arbutin] |  |  | melanogenesis inhibitory effect relative to arbutin (Mouse melanoma B16 cells): about 100 times |
| O=C1O[C@H]([C@@H](O)CO)C(O)=C1O [ascorbic acid, L-ascorbic acid] |  |  | concentrations exhibiting tyrosinase activity promoting effects [2]: ≤ 10^−4 M |
| CCCCCCCCCCCCCCCC(=O)OCC(O)C1OC(=O)C(O)=C1O (stereo not shown) [Ascorbic acid palmitic ester, ascorbic acid-6-palmitate] |  |  | concentrations exhibiting tyrosinase activity promoting effects [2]: ≤ 10^−4 M |
| Sucrose undecylenic acid ester | inhibit tyrosinase activity | inhibit tyrosinase activity |  |
| trehalose undecylenic acid ester | inhibition of tyrosinase | tyrosinase was inhibited |  |

Second part, led by results:

| tyrosinase inhibitory activity [3] | Compound | tyrosinase inhibitory activity [1] | also measured |
| --- | --- | --- | --- |
| inhibit tyrosinase activity | C=CCCCCCCCCC(=O)O [Undecylenic acid] |  |  |
| inhibit tyrosinase activity | OC[C@H]1O[C@@H](Oc2ccc(O)cc2)[C@H](O)[C@@H](O)[C@@H]1O [Arbutin] | inhibit tyrosinase activity | tyrosinase inhibitory activity, phenol substrate compared with catechol substrate ([1]; phenol vs catechol substrate, FIG. 6): higher inhibitory activity against a phenol substrate than against a catechol substrate |
| not inhibit tyrosinase activity | Trehalose diundecylenic acid ester |  |  |
